Test results as given in PMC11784839, “Monoaminergic neurotransmitters are bimodal effectors of tau aggregation” (Science Advances, 2025).

Biological target: tau (Homo sapiens, UniProt P10636)
Assay: MCE Phenols Library screening, tau biosensor cell seeding assay (AvZ)
Type: cell-based
Details: for Z repl 1 / Z Repl 2: Z score; for Z repl 1 / raw data 1: replicate 1; for Z Repl 2 / raw data 2: replicate 2; for AvZ (average z score of seeding, SDs from the mean level of seeding): 10 μM phenol in cell cultures, AD brain homogenate preincubated 16 hours, two biological replicates, positive = catalyzes seeding, negative = inhibits
[1] = average Z score of the two replicates, tau seeding
[2] = average puncta of the two replicates
[3] = average Z score of the two replicates, MCE Phenols Library screen
[4] = average Z score of the two replicates, tau biosensor seeding, MCE Phenols Library screen
[5] = average Z score of two replicates, Phenols Library screen

Chain of tau (P10636 623-695 limits assumed): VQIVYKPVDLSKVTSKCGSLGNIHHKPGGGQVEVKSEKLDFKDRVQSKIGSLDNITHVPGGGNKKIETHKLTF

Z repl 1 | Z Repl 2 | av Z [1] | av puncta (average of raw data 1 and 2) | raw data 1 (puncta) | raw data 2 (puncta) | AvZ (average z score of seeding, SDs from the mean level of seeding) | av puncta [2] | raw data 1 (raw puncta) | raw data 2 (raw puncta) | av Z [3] | av Z [4] | av Z [5] | SMILES
-0.906 | -0.245 | – | – | 15471.3 | 10150.6 | – | 12810.9 | – | – | -0.575 | – | – | O=c1cc(-c2ccc(O)cc2)oc2cc(O)c([C@@H]3O[C@H](CO)[C@@H](O)[C@H](O)[C@H]3O[C@@H]3OC[C@H](O)[C@H](O)[C@H]3O)c(O)c12 [Isovitexin 2''-O-arabinoside]
1.473 | 0.443 | – | 30766.9 | 44034.1 | 17499.7 | – | – | – | – | – | 0.958 | – | COc1cc(-c2cc(=O)c3c(O)c(OC)c(O)cc3o2)ccc1O [Jaceosidin]
0.183 | -0.42 | – | 18414.7 | 28546.2 | 8283.25 | – | – | – | – | – | – | -0.118 | COc1ccc(CCO[C@@H]2O[C@H](CO[C@@H]3O[C@H](CO)[C@H](O)[C@H](O)[C@H]3O)[C@@H](OC(=O)/C=C/c3ccc(O)c(OC)c3)[C@H](O[C@@H]3O[C@@H](C)[C@H](O)[C@@H](O)[C@H]3O)[C@H]2O)cc1O [Jionoside B1]
-0.102 | -1.05 | – | – | 25119.1 | 1554.77 | – | 13337 | – | – | -0.576 | – | – | COc1ccc(-c2oc3cc(O)cc(O)c3c(=O)c2O)cc1 [Kaempferide]
-1.403 | -0.446 | – | 8757.09 | 9507.36 | 8006.82 | – | – | – | – | -0.924 | – | – | C[C@@H]1O[C@@H](Oc2cc(O)c3c(=O)c(O[C@@H]4O[C@@H](C)[C@H](O)[C@@H](O)[C@H]4O)c(-c4ccc(O)cc4)oc3c2)[C@H](O)[C@H](O)[C@H]1O [Kaempferitrin]
0.499 | 0.597 | 0.548 | 25744.8 | 32345.4 | 19144.3 | – | – | – | – | – | – | – | O=C(O)[C@H]1O[C@@H](Oc2c(-c3ccc(O)cc3)oc3cc(O)cc(O)c3c2=O)[C@H](O)[C@@H](O)[C@@H]1O [Kaempferol 3-O-?-D-glucuronide]
0.421 | -0.356 | – | 20180.4 | 31398.7 | 8962.19 | – | – | – | – | – | – | 0.032 | O=c1c(O[C@@H]2O[C@H](CO[C@@H]3O[C@H](CO)[C@@H](O)[C@H](O)[C@H]3O)[C@@H](O)[C@H](O)[C@H]2O)c(-c2ccc(O)cc2)oc2cc(O)cc(O)c12 [Kaempferol 3-O-gentiobioside]
-0.587 | 0.035 | – | – | – | – | – | 16225.3 | 19307.9 | 13142.7 | -0.276 | – | – | O=c1c(O[C@@H]2O[C@H](CO)[C@@H](O)[C@H](O)[C@H]2O[C@@H]2O[C@H](CO)[C@@H](O)[C@H](O)[C@H]2O)c(-c2ccc(O)cc2)oc2cc(O)cc(O)c12 [Kaempferol 3-O-sophoroside]
-1.386 | -0.619 | – | 7935.47 | 9710.86 | 6160.09 | – | – | – | – | -1.002 | – | – | C[C@@H]1O[C@@H](O[C@H]2[C@H](Oc3c(-c4ccc(O)cc4)oc4cc(O)cc(O)c4c3=O)O[C@H](CO)[C@@H](O)[C@@H]2O)[C@H](O)[C@H](O)[C@H]1O [Kaempferol 3-neohesperidoside]

More lines, now with the values behind:

SMILES | Z repl 1 | Z Repl 2 | av Z [1] | av puncta (average of raw data 1 and 2) | raw data 1 (puncta) | raw data 2 (puncta) | AvZ (average z score of seeding, SDs from the mean level of seeding) | av puncta [2] | raw data 1 (raw puncta) | raw data 2 (raw puncta) | av Z [3] | av Z [4] | av Z [5]
O=C(/C=C/c1ccc(O)cc1)c1ccc(O)cc1O [Isoliquiritigenin] | 0.483 | 0.177 | 0.33 | 23402.5 | 32143.5 | 14661.5 | – | – | – | – | – | – | –
O=c1c2cc(O)c(O)cc2oc2c([C@@H]3O[C@H](CO)[C@@H](O)[C@H](O)[C@H]3O)c(O)cc(O)c12 [Isomangiferin] | 0.307 | 0.537 | 0.422 | 24267.1 | 30032.6 | 18501.6 | – | – | – | – | – | – | –
O=c1cc(-c2ccc(O)c(O)c2)oc2cc(O)c([C@@H]3O[C@H](CO)[C@@H](O)[C@H](O)[C@H]3O)c(O)c12 [Isoorientin] | 0.708 | 0.042 | 0.375 | 24030.3 | 34846.9 | 13213.7 | – | – | – | – | – | – | –
COc1cc(/C=C/C(=O)OC(C)C)ccc1O [Isopropyl ferulate] | 0.168 | -0.833 | – | – | – | – | -0.332 | 16119 | 28366.5 | 3871.42 | – | – | –
O=c1c(O[C@@H]2O[C@H](CO)[C@@H](O)[C@H](O)[C@H]2O)c(-c2ccc(O)c(O)c2)oc2cc(O)cc(O)c12 [Isoquercetin] | 0.174 | -0.844 | – | – | – | – | – | 16096.8 | 28442.1 | 3751.47 | -0.335 | – | –
COc1cc(-c2oc3cc(O)cc(O)c3c(=O)c2O)ccc1O [Isorhamnetin] | 0.124 | -0.648 | – | – | – | – | – | 16840.7 | 27835.2 | 5846.21 | -0.262 | – | –
COc1cc(/C=C/c2cc(O)cc(O)c2)ccc1O [Isorhapontigenin] | 1.299 | 0.571 | – | 30407 | 41947.4 | 18866.6 | – | – | – | – | – | 0.935 | –
O=c1cc(-c2ccc(O)cc2)oc2c([C@@H]3O[C@H](CO)[C@@H](O)[C@H](O)[C@H]3O)c(O)c([C@@H]3OC[C@H](O)[C@H](O)[C@H]3O)c(O)c12 [Isoschaftoside] | -0.121 | -0.131 | – | 18128.6 | 24892.1 | 11365.2 | – | – | – | – | – | – | -0.126
COc1ccc(C(=O)O)cc1O [Isovanillic acid] | 0.248 | -0.549 | – | 18113.3 | 29328.9 | 6897.73 | -0.151 | – | – | – | – | – | –
COc1ccc(C=O)cc1O [Isovanillin] | -0.326 | -0.711 | – | – | 22438.6 | 5167.88 | -0.519 | 13803.3 | – | – | – | – | –
O=c1cc(-c2ccc(O)cc2)oc2cc(O)c([C@@H]3O[C@H](CO)[C@@H](O)[C@H](O)[C@H]3O)c(O)c12 [Isovitexin] | 0.953 | 1.769 | – | 34727.5 | 37791.5 | 31663.6 | – | – | – | – | – | 1.361 | –
COc1cc2c(cc1O)CC[n+]1cc3c(OC)c(OC)ccc3cc1-2.[Cl-] [Jatrorrhizine (chloride)] | 0.505 | -0.062 | 0.221 | 22254 | 32409.6 | 12098.4 | – | – | – | – | – | – | –
